Substitutions are numbered along the chain they refer to.
Experiments:
[1] = system: T1, GARP (Glycoprotein-A Repetitions Predominant Protein), wild type, expressed on PreB cells
T1 sequence: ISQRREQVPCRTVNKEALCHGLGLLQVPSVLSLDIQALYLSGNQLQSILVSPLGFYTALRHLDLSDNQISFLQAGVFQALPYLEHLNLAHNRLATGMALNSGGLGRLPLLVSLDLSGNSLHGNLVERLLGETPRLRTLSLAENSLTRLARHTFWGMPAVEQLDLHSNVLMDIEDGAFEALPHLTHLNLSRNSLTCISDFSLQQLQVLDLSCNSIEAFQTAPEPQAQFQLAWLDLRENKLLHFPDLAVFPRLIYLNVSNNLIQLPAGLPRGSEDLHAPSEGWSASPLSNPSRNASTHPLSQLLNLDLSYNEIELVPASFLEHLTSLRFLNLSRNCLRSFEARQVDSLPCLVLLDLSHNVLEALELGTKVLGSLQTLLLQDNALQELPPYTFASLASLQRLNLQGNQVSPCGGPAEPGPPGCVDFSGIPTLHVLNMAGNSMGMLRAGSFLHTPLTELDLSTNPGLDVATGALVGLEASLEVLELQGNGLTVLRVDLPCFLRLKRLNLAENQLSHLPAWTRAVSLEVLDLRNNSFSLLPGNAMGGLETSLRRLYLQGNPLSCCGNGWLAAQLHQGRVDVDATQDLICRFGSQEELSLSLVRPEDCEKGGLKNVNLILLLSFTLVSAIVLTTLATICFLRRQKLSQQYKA

[2] = system: T2, GARP double mutant (DM) PR 267-268AA PR 286-287AA, expressed on PreB cells
T2 sequence: T1 sequence with P249A, R250A, P268A, R269A

[3] = system: recombinant form of soluble GARP (sGARP) where the transmembrane domain was replaced by IgG1 Fc fragment
thrombin = test: Competition assay: GARP expressing PreB cells digested with thrombin, western blot; format: cell-based; details: 4 μg thrombin
Text: FIGS. 12A-12E: Thrombin cleaves GARP at the amino acid position 267 and 286 between proline and arginine. (A) Surface Flow cytometry analysis for GARP of WT PreB cells and GARP expression in PreB cells expressing WT GARP, GARP with single point mutation 267 aa, GARP with single point mutation 286 aa, GARP with double point mutation 267/286 aa (DM), and relative control vector. (B) Western Blot analysis of cells lysates and conditioned media of PreB cells expressing WT GARP, GARP with single point mutation 267 aa, GARP with single point mutation 286 aa, or GARP with double point mutation 267/286 aa using antibody against GARP. (C) PreB cells expressing WT or DM GARP were digested with increasing concentration of thrombin (0, 1, 2, and 4 μg in 25 μl), followed by western blot analysis. (D) Recombinant fragment of GARP containing the two Proline Arginine thrombin binding sites (T250; SEQ ID NO:1). (E) Western blotting analysis of GARP expressing PreB cells digested with 4 μg of thrombin in presence and absence of 4 μg of T250.
Thus, 3 types of mutants: PR 267-268AA (GARP 267), PR 286-287AA (GARP 286), and double mutant (DM) PR 267-268AA PR 286-287AA (GARP 267-286, -DM) were generated. […] Next, it tested whether GARP-DM was resistant to the cleavage of exogenous thrombin. To this end, PreB GARP-WT and PreB GARP-DM were treated with increasing concentrations of thrombin.

[4] = system: thrombin activated platelets; test: Flow cytometry of surface GARP/LAP on platelets stimulated with thrombin; format: cell-based, murine
Experimental: (§1) FIGS. 7A-7G: Direct thrombin inhibitor Dabigatran Etexilate reduces platelet GARP expression and protects against melanoma and colon cancer. (A) Flow cytometry analysis of surface GARP/LAP complex on murine WT platelets stimulated with and without thrombin and Dabigratan Etexilate. (B) Tumor growth curves of mice subcutaneously injected with B16-F1 melanoma cells and daily treated with 3 mg/mouse of Dabigratan Etexilate. (C) Tumor growth curves of mice subcutaneously injected with MC38 colon cancer cells and daily treated with 3 mg/mouse of Dabigratan Etexilate. (D) Serum was obtained from tumor bearing MC38 colon cancer and active (D) and total TGF-β (E) was measured by ELISA. (F) Serum was obtained from tumor bearing MC38 colon cancer and soluble GARP was measured by ELISA. (G) Percentage of regulatory T cells CD25+ FOXP3+ in the CD4+ tumor-infiltrating CD4+ lymphocytes (TIL) from the indicated mice.
(§2) Now, to establish the clinical relevance of the Thrombin-GARP/TGF-β axis, the direct thrombin inhibitor, Dabigatran Etexilate was employed. […] The anti-tumor efficacy of Dabigatran Etexilate was tested in 2 different tumor models. […] As a further proof of the mechanism employed by dabigatran to exert its antitumor activity, serum active and total TGF-β, and serum GARP concentrations were assessed by ELISA.

B16-F1 melanoma cells = test: B16-F1 melanoma tumor growth in mice; format: in vivo; details: subcutaneous B16-F1, daily 3 mg/mouse, no adoptive T cell transfer
Experimental: as §1
(§3) (A) Tumor growth curves of mice subcutaneously injected with MC38 colon cancer cells and daily treated with 3 mg/mouse of Dabigatran etexilate. […]
(§4) Now, to establish the clinical relevance of the Thrombin-GARP/TGF-β axis, the direct thrombin inhibitor, Dabigatran Etexilate was employed. […] As a further proof of the mechanism employed by dabigatran to exert its antitumor activity, serum active and total TGF-β, and serum GARP concentrations were assessed by ELISA.

MC38 colon cancer cells [5] = test: MC38 colon cancer tumor growth in mice; format: in vivo; details: subcutaneous MC38, daily 3 mg/mouse
Experimental: as §1, §3, §4

TGF-β = test: Serum active and total TGF-β ELISA in MC38 tumor bearing mice; format: in vivo
Experimental: as §1, §2

soluble GARP = test: Serum soluble GARP ELISA in MC38 tumor bearing mice; format: in vivo
Experimental: as §1, §2

[6] = system: regulatory T cells CD25+ FOXP3+; test: Regulatory T cells among tumor-infiltrating CD4+ lymphocytes; format: in vivo, mice; details: CD25+ FOXP3+ in CD4+ TIL
Experimental: as §1, §2

MC38 colon cancer cells [7] = test: Dabigatran and PD1 blocking antibody combination therapy in MC38 tumor model; format: in vivo, mice; details: dabigatran 3 mg/mouse daily oral gavage, 200 μg anti-PD1 every 3 days from day 8
Text: (A) Experimental design for Dabigatran and PD1 blocking antibody combination therapy. (B) Tumor growth curves of mice subcutaneously injected with MC38 colon cancer cells and treated with Dabigatran alone, with PD1 blocking antibody, with the combination of Dabigatran and PD1 blocking antibody or left untreated. (C) Survival curve in MC38-bearing mice treated with Dabigatran alone, with PD1 blocking antibody, with the combination of Dabigatran and PD1 blocking antibody or left untreated. Repeated measurement 2 way Anova was performed in B. Log-rank (Mantel-Cox) was performed in C. (D) Serum was collected from the mice under the dual treatment and analyzed for TGFβ concentration by TGFβ ELISA. (E) Platelets count of the mice under dual treatment. Repeated measurement 2-way ANOVA was performed in B. Log-rank (Mantel-Cox) was performed in C. Two-tailed, independent Student's t-test was used in panel D and E.
Next, Dabigatran was used in combination with PD1 blockade to block thrombin and consequentially platelet activation to achieve both a reduction of systemic and circulating TGF-β, and the abrogation of platelet-mediated tumor support. Platelets, indeed, secrete many other factors beyond TGF-β that facilitate tumor immune evasion. Animals harboring palpable tumors were daily treated with 3 mg/mouse dabigatran by oral gavage. […]

TGFβ = TGFβ ELISA on serum of WT B6 mice treated for one week; format: in vivo; details: one week daily gavage of 3 mg/mouse
Experimental: (A) Tumor growth curves of mice subcutaneously injected with MC38 colon cancer cells and daily treated with 3 mg/mouse of Dabigatran etexilate. (B) Tumor growth curves of mice subcutaneously injected with B16-F1 melanoma cells and daily treated with 3 mg/mouse of Dabigatran etexilate. (C) TGFβ ELISA on serum of WT B6 mice treated for one week with daily gavage of 3 mg/mouse of Dabigatran etexilate. Repeated measurement 2-way ANOVA was performed in A and B.

## thrombin
[1]
  western blot after digestion of PreB GARP-WT with increasing concentrations of thrombin: Both 44 and 29 KD fragments increased in a dose dependent fashion in GARP-WT
[2]
  western blot after digestion of PreB GARP-DM with increasing concentrations of thrombin: no cleaved products were observed in GARP-DM
[3]
  western blot of soluble GARP digested with increasing concentrations of thrombin: digestion of soluble GARP with thrombin gave rise to 3 fragments: GARP full length (72 KD), and the 2 smaller fragments of 44 and 29 KD

## T250: Recombinant fragment of GARP containing the two Proline Arginine thrombin binding sites; DLRENKLLHFPDLAVFPRLIYLNVSNNLIQLPAGLPRGSEDLHAPSEGWSA (SEQ ID NO:1) (GARP peptide)
thrombin; 4 μg T250
  competition with surface GARP in binding with thrombin: competed with surface GARP in binding with thrombin
thrombin; in presence of exogenous thrombin, 4 μg T250, western blot
  GARP cleavage: able to reduce GARP cleavage

## CCCCCCOC(=O)NC(=N)c1ccc(NCc2nc3cc(C(=O)N(CCC(=O)OCC)c4ccccn4)ccc3n2C)cc1 [Dabigatran, Dabigatran Etexilate]
[4]
  GARP expression on platelets: increase of GARP expression on platelets can be neutralized
B16-F1 melanoma cells
  B16-F1 tumor growth: reduced B16-F1 tumor aggressiveness
MC38 colon cancer cells [5]
  MC38 tumor growth: sufficient to decrease the rate of tumor growth
MC38 colon cancer cells [5]; listed as Dabigatran etexilate
  MC38 tumor growth: has anti-cancer effect in MC38 colorectal cancer
TGF-β
  serum total TGF-β: reduced serum total TGF-β
TGF-β; difference to untreated not statistically significant
  serum active TGF-β, mean: 42.47±23.73
Soluble GARP
  serum soluble GARP: impairs the release of serum soluble GARP from platelets
[6]
  TGF-β mediated induction of Tregs in the tumor microenvironment: reduces the TGF-β mediated induction of Tregs
MC38 colon cancer cells [7]
  tumor growth: effective in reducing tumor growth
TGFβ
  systemic active TGFβ: decreases systemic active TGFβ

From US20210087240A1, “BLOCKING GARP CLEAVAGE AND METHODS OF USE THEREOF” (MUSC FOUNDATION FOR RESEARCH DEVELOPMENT, priority 2017, published 2021)
